Results: patent US11591324B2, “Retinoic acid receptor antagonists as chaperone-mediated autophagy modulators and uses thereof” (ALBERT EINSTEIN COLLEGE OF MEDICINE, priority 2013, dated 2023)
Values belong to the compound of their own block, whether it stands above or below them. Starred links: 1 amine or outer side, 2 acyl side, 3 side chain; linkers in the order of their positions; H or OH if unused. Positions of bridges follow the written chain, without caps; N, C: chain ends. Non-standard residues stand in square brackets, D forms with d. Residues, ends and D or L forms follow the SMILES beside them. Chains are numbered I, II in the order given. Actinocin(9to1) = Cc1c2oc3c(C)ccc(C(=O)[*:1])c3nc-2c(C(=O)[*:2])c(N)c1=O; NMeV = CN[C@H](C(=O)O)C(C)C; Sar = CNCC(=O)O

Experiments:
[1] = system: chaperone-mediated autophagy (CMA); assay: CMA reporter assay (photoactivable KFERQ-PA-mCherry1 reporter); assay type: cell-based, mouse; details: for CMA activity (fluorescent puncta per cell, CMA reporter): mouse fibroblasts, 20 μM
From the text: (§1) Autophagic measurements. […] Lysosomes from cultured cells were isolated by similar procedures but using instead discontinuous metrizamide/percoll gradients after rupture of the plasma membrane through nitrogen cavitation^33.
CMA reporter assay. The photoactivable CMA reporter was constructed by inserting a sequence of 21 amino acids of Ribonuclease A bearing the CMA-targeting motif in the N-terminus multicloning site of the photoactivable protein mCherry1 (PA-mCherry1)^30. […] All images were acquired with a high-resolution CCD camera after optical sectioning through the apotome. Images were prepared using Adobe Photoshop 6.0 software (Adobe Systems). Quantification was performed in individual frames after deconvolution and thresholding using ImageJ software (NIH) in a minimum of 50 cells.
Because the observed downregulation of macroautophagy upon RARα knock-down cannot explain the increase in lysosomal degradation observed in these cells (FIG. 1c), the effect of this intervention on CMA was measured. Activation of this selective autophagic pathway can be determined using a photoactivable (PA) reporter fused to the CMA-targeting motif (KFERQ-PA-mcherry1)^30. Activation of CMA favors mobilization of this artificial CMA substrate from the cytosol to lysosomes, which can be tracked as a change in the reporter fluorescence from a diffuse to a punctate pattern^30.

macroautophagy (LC3-II) = assay: Macroautophagy: LC3-II levels and flux (immunoblot, mCherry-GFP-LC3); assay type: cell-based; details: mouse fibroblasts; retinoid derivatives 20 μM
From the text: as §1
To directly analyze macroautophagy, a widely accepted assay was used to measure activity of this pathway based on the analysis of the intracellular levels and degradation of the lipid-conjugated form of the light chain protein type 3 (LC3-II), a constitutive component of autophagosomes^29. Steady-state levels of LC3-II provide information on the amount of autophagosomes present in a cell at a given time, whereas the amount of LC3-II that accumulates upon blockage of lysosomal proteolysis allows measuring the efficiency of fusion and degradation of autophagic vacuoles by lysosomes (autophagic flux). […] Immunofluorescence for LC3 in these cells confirmed the presence of higher content of LC3-positive vesicles in the cells defective for RARα. These vesicles were confirmed to be autophagosomes using a double tagged form of LC3 (mCherry-GPF-LC3) that due to quenching of GFP fluorescence at low pH highlights autophagosomes in yellow and lysosomes in red. […] An increase in autophagosome content can result from increased formation of these organelles (autophagosome induction) or from reduced clearance of autophagosomes by lysosomes. To differentiate between both possibilities, the autophagic flux was compared in control and RARα (−) cells.

RARα = molecular target: T1, RARα (Mus musculus, UniProt P11416); assay: RARα translocation to the nucleus; assay type: cell-based
T1 construct: endogenous in cells; host or cells: mouse fibroblasts (NIH3T3), inferred
T1 sequence (P11416 1-462): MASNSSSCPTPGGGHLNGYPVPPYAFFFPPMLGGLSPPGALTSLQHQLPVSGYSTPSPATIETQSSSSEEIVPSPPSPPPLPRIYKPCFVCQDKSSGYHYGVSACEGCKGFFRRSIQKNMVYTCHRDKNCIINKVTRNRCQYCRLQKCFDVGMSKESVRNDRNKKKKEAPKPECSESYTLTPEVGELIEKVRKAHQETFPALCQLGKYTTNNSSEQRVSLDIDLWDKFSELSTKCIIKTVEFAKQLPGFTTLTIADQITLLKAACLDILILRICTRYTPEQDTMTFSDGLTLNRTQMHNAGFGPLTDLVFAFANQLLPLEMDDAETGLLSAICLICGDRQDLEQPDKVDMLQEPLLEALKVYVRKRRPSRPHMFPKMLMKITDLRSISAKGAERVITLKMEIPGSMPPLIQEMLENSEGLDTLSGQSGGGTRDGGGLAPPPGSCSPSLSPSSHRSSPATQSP

[2] = system: chaperone-mediated autophagy (CMA); assay: High content microscopy CMA assay (KFERQ-PS-dendra reporter); assay type: cell-based, mouse; details: for basal versus stress-induced CMA activation: presence or absence of serum
Procedure: CMA activity in mouse fibroblasts in culture was measured using a new version of a previously developed photoswitchable (PS) CMA fluorescent reporter^30 generated by addition of a CMA targeting motif to the PS-dendra protein (KFERQ-PS-dendra). Briefly, cells transduced with lentivirus carrying the reporter were photoactivated 24 h after transduction by exposure to a 3.5 mA (current constant), and 90V light emitting diode (LED: Norlux, 405 nm) for 9 min. Cells were plated in 96 well plates, subjected to the desired treatments and at the end of the experiment fixed in 4% paraformaldehyde. Images were captured with a high content microscope (Opperetta system, Perkin Elmer) and quantification was performed with the instrument software in a minimum of 200 cells or 9 fields.

[3] = system: mouse fibroblasts transfected with α-synuclein; assay: α-synuclein plus PQ proteotoxicity (viability, immunoblot); assay type: cell-based; details: pre-treatment 20 μM before 1 mM PQ
From the text: Maintained chronic oxidation is a common feature of aging and an aggravating factor in multiple degenerative disorders. To model the detrimental effect of oxidative stress on proteotoxicity and analyze the possible beneficial effect of enhancing CMA activity in these conditions, cells were transfected with α-synuclein, the protein that accumulates in the form of intracellular aggregates in Parkinson's disease (PD) and previously identified as a bonafide CMA substrate^9,10. Although mutations in this protein have been associated to the familial forms of the disease, in more than 98% of PD patients the protein that accumulates in the protein inclusions is wild type. Consequently, different intracellular factors and aggressors, including oxidative stress, have been proposed to contribute to the idiopathic forms of this pathology. […] Although the presence of α-synuclein alone was not toxic for these cells, the toxicity of a fixed concentration of PQ was clearly dependent on the concentration of this protein present in the cell. The concentration of PQ added to these cells was adjusted so that in cells expressing low levels of α-synuclein, its toxic effect was limited to no more than 20% reduction in cellular viability. […]

hRARα = molecular target: T2, hRARα (Homo sapiens, UniProt P10276); assay: RARα activity, RAR-responsive luciferase reporter; assay type: cell-based; details: for RARα antagonist activity (inhibition of ATRA-dependent luciferase): in combination with 100 nM ATRA
T2 construct: expressed in transfected cells; host or cells: mouse fibroblasts (NIH3T3)
T2 sequence (P10276 with tags, fused parts or gaps limits assumed): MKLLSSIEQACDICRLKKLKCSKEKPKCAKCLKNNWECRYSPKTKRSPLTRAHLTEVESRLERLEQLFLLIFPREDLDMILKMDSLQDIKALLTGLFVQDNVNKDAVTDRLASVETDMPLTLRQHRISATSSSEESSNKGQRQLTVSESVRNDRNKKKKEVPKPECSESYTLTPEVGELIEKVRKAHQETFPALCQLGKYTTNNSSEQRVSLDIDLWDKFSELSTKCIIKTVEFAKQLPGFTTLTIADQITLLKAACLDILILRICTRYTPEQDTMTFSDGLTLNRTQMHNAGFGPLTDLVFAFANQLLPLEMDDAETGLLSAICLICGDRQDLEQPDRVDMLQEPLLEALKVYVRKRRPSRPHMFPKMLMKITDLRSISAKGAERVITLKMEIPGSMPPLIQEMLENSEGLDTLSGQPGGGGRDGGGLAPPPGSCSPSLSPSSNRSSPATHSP
Procedure: Measurement of RARα and RXR activity. A RAR-responsive luciferase construct was utilized to monitor the activity of RARα in cultured cells. Cells were co-transfected with pCMX-Gal-L-hRARα and a construct encoding the firefly luciferase reporter gene under the control of a minimal promoter and tandem repeats of the retinoic-acid response element (tk-px3-luc). Co-transfection with a renilla luciferase reporter plasmid was performed to control for efficiency of transfection. RXR activity was measured by similar procedures using co-transfection with pCMX-mRXR and tk-apoA1-luc. Compounds were added 24 h after transfection and 48 h later cells were lysed and assayed for luciferase activity using the Dual-Luciferase Reporter Assay System (Progmega). Luciferase values were normalized to the renilla luciferase reporter.
To determine the effect of these molecules on RAR signaling, cells were co-transfected cells with a plasmid coding for RAR fused to the Gal4 DNA-binding domain and a Gal4-dependent luciferase reporter.

[4] = system: mouse fibroblasts (NIH3T3); assay: Intracellular protein degradation (metabolic labeling, pulse chase)
LAMP-2A = LAMP-2A mRNA levels (quantitative real time PCR)

Compound: Cc1ccc(C2=Nc3ccc(Cl)cc3OC2)cc1 [AR7]
CMA activity (fluorescent puncta per cell, CMA reporter) ([1]; presence of serum): marked activation of CMA activity
macroautophagy: LC3 steady state levels and lysosomal flux (macroautophagy (LC3-II)): absence of effect on other autophagic pathways
RARα relocation to the nucleus (RARα): sufficient to stimulate some relocation of cytosolic RARα to the nucleus
basal versus stress-induced CMA activation [2]: only activated basal CMA
cellular viability of α-synuclein-transfected cells treated with PQ [3]: significant increases in cellular viability
RARα antagonist activity (inhibition of ATRA-dependent luciferase) (hRARα): among the most potent antagonist compounds in the library

RARα agonist activity (luciferase) (hRARα; compound alone): dose-dependent activation
Compound: CC1=C(/C=C/C(C)=C/C=C/C(C)=C/C(=O)O)C(C)(C)CCC1 [ATRA, all-trans-retinoic acid]
protein degradation in response to prolonged serum removal ([4]; 40 μM ATRA, absence of serum): significantly reduced the increase in protein degradation
lysosomal degradation (sensitive to inhibitors of lysosomal proteolysis) ([4]; 40 μM ATRA, basal and inducible): both basal and inducible lysosomal degradation were significantly compromised
total rates of protein degradation, basal ([4]; 40 μM ATRA, presence of serum): did not affect total rates of protein degradation under basal conditions
inhibitory effect on autophagic degradation of cytosolic proteins in RARα (−) cells ([4]; ATRA, RARα knock-down): still detectable when RARα (−) cells were supplemented with ATRA
basal CMA ([1]; ATRA treatment, presence of serum): did not have a noticeable effect on basal CMA
activation of CMA in response to serum removal ([1]; ATRA treatment, serum removal): significantly reduced the activation of this pathway in response to serum removal
effect on CMA activity in RARα (−) cells ([1]; RARα knock-down mouse fibroblasts): no longer inhibited CMA activity in RARα (−) cells
macroautophagy: LC3 steady state levels and lysosomal flux (macroautophagy (LC3-II)): no significant changes in steady state levels of LC3 or in its lysosomal flux
LAMP-2A mRNA levels, serum deprived (LAMP-2A; ATRA added to cells deprived of serum): significant decrease in LAMP-2A mRNA
LAMP-2A mRNA levels, basal (LAMP-2A; ATRA, basal conditions): No changes in LAMP-2A mRNA levels

Compound: Cc1c2oc3c(C)ccc(C(=O)N[C@@H]4C(=O)N[C@H](C(C)C)C(=O)N5CCC[C@H]5C(=O)N(C)CC(=O)N(C)[C@@H](C(C)C)C(=O)O[C@@H]4C)c3nc-2c(C(=O)N[C@@H]2C(=O)N[C@H](C(C)C)C(=O)N3CCC[C@H]3C(=O)N(C)CC(=O)N(C)[C@@H](C(C)C)C(=O)O[C@@H]2C)c(N)c1=O [Actinomycin D] (I: T[dV]P[Sar][NMeV] / II: T[dV]P[Sar][NMeV]; ester I:1-I:C, II:1-II:C; linker I:N-II:N via Actinocin(9to1))
stimulatory effect of AR7 on CMA under transcriptional repression ([1]; AR7 plus Actinomycin D): partially reduced the stimulatory effect of AR7 on CMA

Compound: CC1(C)CC=C(c2cnc3ccccc3c2)c2cc(C(=O)Nc3ccc(C(=O)O)cc3)ccc21 [BMS614]
CMA activity (fluorescent puncta per cell, CMA reporter) ([1]; presence of serum): also enhanced CMA activity
macroautophagy: LC3 steady state levels and lysosomal flux (macroautophagy (LC3-II)): inhibited macroautophagy

Compound: CC1=CC(=Cc2ccc(C(=O)NC(=N)N)cc2)CC(C)(C)C1 [GR1, N-[4-(3,5,5-trimethyl-cyclohex-2-enylidenemethyl)-benzoyl]-guanidine]
CMA activity (fluorescent puncta per cell, CMA reporter) ([1]; presence of serum): marked activation of CMA activity
macroautophagy: LC3 steady state levels and lysosomal flux (macroautophagy (LC3-II)): absence of effect on other autophagic pathways

Compound: CC1=CC(=Cc2ccc(C(=O)NC(=N)N)cc2)CCC1 [GR2, N-[4-(3-methyl-cyclohex-2-enylidenemethyl)-benzoyl]-guanidine]
CMA activity (fluorescent puncta per cell, CMA reporter) ([1]; presence of serum): marked activation of CMA activity
macroautophagy: LC3 steady state levels and lysosomal flux (macroautophagy (LC3-II)): absence of effect on other autophagic pathways
RARα antagonist activity (inhibition of ATRA-dependent luciferase) (hRARα): among the most potent antagonist compounds in the library

Compound: Clc1ccc2c(c1)OCC(c1ccc(-c3ccccc3)cc1)=N2 [QX39]
CMA activation potency relative to AR7 ([2]; cultured cells, photoactivatable CMA reporter): 2-3 fold
basal versus stress-induced CMA activation [2]: activated both basal and stress-induced CMA
